Source: ChEMBL document CHEMBL5226304, “Fused-azepinones: Emerging scaffolds of medicinal importance” (Eur J Med Chem, 2021)
Converted amounts (≈) assume the structure as drawn. Blank lines part the entries; values can stand above or below the compound they belong to.

Assays:
LAPC4 = experiment: Antiproliferative activity against human LAPC4 cells assessed as inhibition of proliferation measured after 96 hrs by alamerBlue assay; assay type: functional, cell-based
MOLM-13 = experiment: Antiproliferative activity against human MOLM-13 cells assessed as inhibition of proliferation measured after 96 hrs by alamerBlue assay; assay type: functional, cell-based
[1] = biological target: Mitogen-activated protein kinase kinase kinase 7 (Homo sapiens) (UniProt O43318); experiment: Inhibition of MAP3K7 kinase (unknown origin) at 10 uM relative to control
[2] = biological target: Cyclin-dependent kinase 5/CDK5 activator 1 (Homo sapiens, UniProt Q00535); experiment: Inhibition of CDK5/p25 (unknown origin); assay type: protein-complex assay
[3] = test system: Human immunodeficiency virus 1; experiment: Antiviral activity against HIV1 assessed as inhibition of LC5-RIC cells infection at 50 uM relative to control; assay type: functional
[4] = biological target: Cyclin-dependent kinase 1/cyclin B (Homo sapiens, UniProt P06493); experiment: Inhibition of CDK1/Cyclin B (unknown origin) in presence of gamma32P-ATP by scintillation counter analysis; assay type: protein-complex assay
Homo sapiens [5] = species on record: Homo sapiens; experiment: Selectivity ratio of IC50 for Chk1 (unknown origin) to IC50 for (unknown origin)
[6] = Selectivity index, ratio of IC50 for CDK1/Cycline B (unknown origin) to IC50 for GSK3beta (unknown origin)
Homo sapiens [7] = species on record: Homo sapiens; experiment: Inhibition of MPK (unknown origin) at 10 uM relative to control
[8] = biological target: Serine/threonine-protein kinase PLK1 (Homo sapiens) (UniProt P53350); experiment: Inhibition of PLK1 (unknown origin) at 10 uM relative to control
[9] = biological target: Aurora kinase B (Homo sapiens) (UniProt Q96GD4); experiment: Inhibition of Aurora B (unknown origin) at 10 uM relative to control
[10] = biological target: MAP/microtubule affinity-regulating kinase 3 (Homo sapiens) (UniProt P27448); experiment: Inhibition of MARK3 (unknown origin) at 10 uM relative to control
[11] = biological target: Serine/threonine-protein kinase pim-1 (Homo sapiens) (UniProt P11309); experiment: Inhibition of PIM1 (unknown origin) at 10 uM relative to control
[12] = biological target: Mitogen-activated protein kinase kinase kinase 11 (Homo sapiens) (UniProt Q16584); experiment: Inhibition of MLK3 (unknown origin) at 10 uM relative to control
L5178Y = experiment: Cytotoxicity against mouse L5178Y cells by MTT assay; assay type: functional, cell-based
Casein kinase I = experiment: Inhibition of CK1 (unknown origin); assay type: protein assay, Homo sapiens
KB 3-1 = experiment: Cytotoxicity against human KB-3-1 cells by MTT assay; assay type: functional, cell-based
[13] = biological target: DNA topoisomerase 2-alpha (Homo sapiens, UniProt P11388); experiment: Inhibition of topoisomerase 2 alpha (unknown origin)
Casein kinase 2 = Casein kinase 2 (Homo sapiens, UniProt P67870+P68400+P19784+Q8NEV1); experiment: Inhibition of CK2 (unknown origin); assay type: protein assay
[14] = biological target: Human immunodeficiency virus type 1 reverse transcriptase (Human immunodeficiency virus 1) (UniProt Q72547); experiment: Inhibition of HIV1 Reverse transcriptase at 25 uM relative to control
THP-1 [15] = experiment: Antiinflammatory activity in human THP-1 cells assessed as inhibition of LPS-stimulated IL2 production; assay type: functional, cell-based
[16] = biological target: Mitogen-activated protein kinase 3 (Homo sapiens, UniProt P27361); experiment: Inhibition of Erk1 (unknown origin)
CDK1/Cyclin E = CDK1/Cyclin E (Homo sapiens, UniProt P06493); experiment: Inhibition of CDK1/Cyclin E (unknown origin); assay type: protein-complex assay
DNA topoisomerase 1 = DNA topoisomerase 1 (Homo sapiens, UniProt P11387); experiment: Inhibition of topoisomerase 1 (unknown origin)
Mus musculus = species on record: Mus musculus; experiment: Neuroprotective activity in Swiss mouse cortical neurons assessed as increase in cell viability in presence of H2O2 at 10 nM relative to control; assay type: functional
[17] = biological target: Proto-oncogene tyrosine-protein kinase Src (Homo sapiens, UniProt P12931); experiment: Inhibition of c-Src (unknown origin)
[18] = Inhibition of MAPKK (unknown origin); design: species or system Homo sapiens
[19] = Inhibition of cAMP-dependent protein kinase (unknown origin); design: species or system Homo sapiens
CDK3/Cyclin E = CDK3/Cyclin E (Homo sapiens, UniProt Q00526); experiment: Inhibition of CDK3/Cyclin E (unknown origin); assay type: protein-complex assay
THP-1 [20] = experiment: Antiinflammatory activity in human THP-1 cells assessed as inhibition of LPS-stimulated TNFalpha production; assay type: functional, cell-based
Bos taurus [21] = species on record: Bos taurus; experiment: Inhibition of Interleukin-1- stimulated proteoglycan degradation in bovine articular cartilage; assay type: functional; conditions: Cartilage tissue
[22] = Inhibition of IL-1 stimulated PGE2 production in human rheumatoid synovial fibroblasts; assay type: functional, cell-based; conditions: Fibroblast
[23] = biological target: Tyrosine-protein kinase ABL1 (Homo sapiens, UniProt P00519); experiment: Inhibition of c-abl (unknown origin)
[24] = Inhibition of cGMP-dependent protein kinase (unknown origin); design: species or system Homo sapiens
[25] = biological target: Cyclin-dependent kinase 4/cyclin D1 (Homo sapiens, UniProt P11802); experiment: Inhibition of CDK4/Cyclin D1 (unknown origin); assay type: protein-complex assay
CDK6/cyclin D2 = CDK6/cyclin D2 (Homo sapiens, UniProt P30279+Q00534); experiment: Inhibition of CDK6/Cyclin D2 (unknown origin); assay type: protein-complex assay
[26] = test system: Human immunodeficiency virus 1; experiment: Antiviral activity against HIV1 assessed as inhibition of LC5-RIC cells infection at 3.1 uM relative to control; assay type: functional
Bos taurus [27] = species on record: Bos taurus; experiment: Inhibition of Interleukin-1- stimulated iNOS gene expression in bovine articular cartilage; assay type: functional; conditions: Cartilage tissue
[28] = biological target: Glycogen synthase kinase-3 beta (Rattus norvegicus, UniProt P18266); experiment: Inhibition of recombinant recombinant rat GSK3beta using GS-1 peptide as substrate in presence of [gamma-32P]ATP measured after 30 mins incubation by scintillation counting analysis
CDK9/Cyclin T = CDK9/Cyclin T (Homo sapiens, UniProt P50750); experiment: Inhibition of CDK9/Cyclin T (unknown origin); assay type: protein-complex assay
[29] = biological target: Dual specificity tyrosine-phosphorylation-regulated kinase 1A (Homo sapiens, UniProt Q13627)
Description: Inhibition of DYRK1A (unknown origin)

[30] = biological target: Cyclin-dependent kinase 2/cyclin A (Homo sapiens, UniProt P24941); experiment: Inhibition of CDK2/Cyclin A (unknown origin); assay type: protein-complex assay

Cyclin-dependent kinase 5/CDK5 activator 1, sequence (Q00535 whole entry): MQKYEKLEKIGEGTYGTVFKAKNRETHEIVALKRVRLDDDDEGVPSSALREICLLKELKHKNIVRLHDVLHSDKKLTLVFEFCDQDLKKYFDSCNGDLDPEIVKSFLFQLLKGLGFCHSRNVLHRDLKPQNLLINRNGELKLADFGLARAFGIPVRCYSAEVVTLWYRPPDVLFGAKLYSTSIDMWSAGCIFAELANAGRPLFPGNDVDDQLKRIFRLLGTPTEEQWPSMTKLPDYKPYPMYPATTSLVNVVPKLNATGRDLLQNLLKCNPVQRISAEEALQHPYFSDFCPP
Cyclin-dependent kinase 5/CDK5 activator 1, sequence (Q15078 whole entry, further chain): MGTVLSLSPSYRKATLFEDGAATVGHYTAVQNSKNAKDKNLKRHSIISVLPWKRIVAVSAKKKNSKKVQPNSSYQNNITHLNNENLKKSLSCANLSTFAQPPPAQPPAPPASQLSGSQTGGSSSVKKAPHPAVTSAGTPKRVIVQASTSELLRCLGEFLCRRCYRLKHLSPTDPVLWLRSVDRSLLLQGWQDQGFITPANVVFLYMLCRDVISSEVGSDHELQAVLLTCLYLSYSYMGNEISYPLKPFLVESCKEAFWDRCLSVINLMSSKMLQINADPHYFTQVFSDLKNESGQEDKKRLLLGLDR
Mitogen-activated protein kinase 3, sequence (P27361 whole entry): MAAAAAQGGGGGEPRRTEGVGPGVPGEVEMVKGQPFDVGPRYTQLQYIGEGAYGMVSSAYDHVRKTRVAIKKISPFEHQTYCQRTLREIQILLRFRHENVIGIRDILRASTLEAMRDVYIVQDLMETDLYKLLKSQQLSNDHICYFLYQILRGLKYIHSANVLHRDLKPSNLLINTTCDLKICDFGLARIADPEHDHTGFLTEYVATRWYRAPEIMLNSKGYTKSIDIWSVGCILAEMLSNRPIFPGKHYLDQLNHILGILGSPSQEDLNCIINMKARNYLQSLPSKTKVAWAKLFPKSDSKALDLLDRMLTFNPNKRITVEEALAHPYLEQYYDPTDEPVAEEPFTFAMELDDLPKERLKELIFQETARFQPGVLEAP
Serine/threonine-protein kinase pim-1 (Homo sapiens), sequence (P11309 whole entry, looked up): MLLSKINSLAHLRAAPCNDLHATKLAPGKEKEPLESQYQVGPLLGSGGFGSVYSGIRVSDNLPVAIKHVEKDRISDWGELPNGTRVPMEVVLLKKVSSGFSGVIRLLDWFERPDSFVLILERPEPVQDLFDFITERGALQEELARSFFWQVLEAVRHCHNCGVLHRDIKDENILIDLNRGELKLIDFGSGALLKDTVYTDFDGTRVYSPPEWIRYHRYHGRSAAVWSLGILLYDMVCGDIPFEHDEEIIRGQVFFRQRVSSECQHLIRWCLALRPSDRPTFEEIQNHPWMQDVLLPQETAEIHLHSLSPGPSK
CDK3/Cyclin E, sequence (P24864 whole entry): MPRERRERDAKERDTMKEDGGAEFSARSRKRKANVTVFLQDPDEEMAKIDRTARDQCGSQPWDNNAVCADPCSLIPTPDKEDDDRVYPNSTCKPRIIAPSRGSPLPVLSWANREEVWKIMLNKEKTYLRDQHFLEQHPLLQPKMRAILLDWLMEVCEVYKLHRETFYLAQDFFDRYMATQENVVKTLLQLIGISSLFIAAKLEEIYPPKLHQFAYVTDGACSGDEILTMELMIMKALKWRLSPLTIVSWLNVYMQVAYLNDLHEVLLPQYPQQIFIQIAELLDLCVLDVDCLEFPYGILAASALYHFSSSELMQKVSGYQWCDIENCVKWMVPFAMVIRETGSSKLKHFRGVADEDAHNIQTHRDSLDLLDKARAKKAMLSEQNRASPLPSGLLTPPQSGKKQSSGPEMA
CDK3/Cyclin E, sequence (Q00526 whole entry): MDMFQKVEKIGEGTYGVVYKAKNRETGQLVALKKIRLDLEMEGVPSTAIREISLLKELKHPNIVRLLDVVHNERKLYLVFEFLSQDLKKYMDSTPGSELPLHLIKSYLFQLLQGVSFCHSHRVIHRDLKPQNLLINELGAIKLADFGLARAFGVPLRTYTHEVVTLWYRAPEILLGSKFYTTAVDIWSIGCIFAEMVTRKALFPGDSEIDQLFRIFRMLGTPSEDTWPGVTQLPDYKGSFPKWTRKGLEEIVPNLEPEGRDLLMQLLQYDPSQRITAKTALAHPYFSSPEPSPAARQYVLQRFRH
CDK9/Cyclin T, sequence (O60563 whole entry): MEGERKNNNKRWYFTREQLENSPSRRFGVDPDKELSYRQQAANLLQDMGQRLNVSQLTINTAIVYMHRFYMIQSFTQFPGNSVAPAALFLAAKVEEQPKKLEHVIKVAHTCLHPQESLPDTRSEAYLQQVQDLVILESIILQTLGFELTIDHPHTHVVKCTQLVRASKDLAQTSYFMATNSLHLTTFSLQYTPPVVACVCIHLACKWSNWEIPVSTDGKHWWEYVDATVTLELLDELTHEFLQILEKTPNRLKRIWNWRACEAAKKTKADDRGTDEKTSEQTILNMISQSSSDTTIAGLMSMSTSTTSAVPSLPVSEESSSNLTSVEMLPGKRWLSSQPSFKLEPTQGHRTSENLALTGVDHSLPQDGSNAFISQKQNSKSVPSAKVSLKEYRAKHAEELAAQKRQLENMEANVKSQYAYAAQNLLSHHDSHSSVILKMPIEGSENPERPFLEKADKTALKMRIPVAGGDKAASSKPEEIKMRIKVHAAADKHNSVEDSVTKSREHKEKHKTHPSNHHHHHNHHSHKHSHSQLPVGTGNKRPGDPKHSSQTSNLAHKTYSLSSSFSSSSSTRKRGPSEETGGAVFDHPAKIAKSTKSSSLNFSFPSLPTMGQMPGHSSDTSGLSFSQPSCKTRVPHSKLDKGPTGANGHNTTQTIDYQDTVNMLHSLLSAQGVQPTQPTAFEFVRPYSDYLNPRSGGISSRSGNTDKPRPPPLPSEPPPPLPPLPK
CDK9/Cyclin T, sequence (P50750 whole entry): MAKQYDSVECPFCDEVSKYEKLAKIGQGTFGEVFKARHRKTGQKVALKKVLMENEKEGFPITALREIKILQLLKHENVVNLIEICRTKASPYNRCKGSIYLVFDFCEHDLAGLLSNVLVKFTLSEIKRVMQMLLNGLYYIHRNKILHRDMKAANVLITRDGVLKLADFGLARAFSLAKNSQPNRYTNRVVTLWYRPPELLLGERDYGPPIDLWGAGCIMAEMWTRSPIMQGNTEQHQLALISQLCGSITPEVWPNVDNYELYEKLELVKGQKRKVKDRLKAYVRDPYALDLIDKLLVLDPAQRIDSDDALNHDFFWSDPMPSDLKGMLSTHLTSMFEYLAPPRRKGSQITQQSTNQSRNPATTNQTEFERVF
CDK9/Cyclin T, sequence (O60583 whole entry, further chain): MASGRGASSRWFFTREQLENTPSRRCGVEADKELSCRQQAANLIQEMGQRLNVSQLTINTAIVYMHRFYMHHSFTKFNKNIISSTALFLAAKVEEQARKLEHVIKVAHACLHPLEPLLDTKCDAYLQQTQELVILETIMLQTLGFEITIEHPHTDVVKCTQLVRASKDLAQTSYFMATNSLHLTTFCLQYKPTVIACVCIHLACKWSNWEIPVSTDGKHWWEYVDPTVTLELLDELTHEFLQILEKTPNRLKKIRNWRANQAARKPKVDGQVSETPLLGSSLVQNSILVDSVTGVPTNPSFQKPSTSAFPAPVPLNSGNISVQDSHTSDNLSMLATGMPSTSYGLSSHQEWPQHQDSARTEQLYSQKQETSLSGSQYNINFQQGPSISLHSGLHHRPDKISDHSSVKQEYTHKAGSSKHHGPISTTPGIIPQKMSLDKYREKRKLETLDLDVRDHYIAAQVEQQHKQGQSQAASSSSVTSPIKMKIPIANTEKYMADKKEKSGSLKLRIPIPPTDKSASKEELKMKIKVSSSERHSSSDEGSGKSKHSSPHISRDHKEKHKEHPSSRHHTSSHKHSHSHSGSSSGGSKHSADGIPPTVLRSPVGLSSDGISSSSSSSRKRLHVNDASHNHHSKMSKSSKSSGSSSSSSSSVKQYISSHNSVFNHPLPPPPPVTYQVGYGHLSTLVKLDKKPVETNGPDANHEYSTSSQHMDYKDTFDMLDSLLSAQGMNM
Mitogen-activated protein kinase kinase kinase 11 (Homo sapiens), sequence (Q16584 whole entry, looked up): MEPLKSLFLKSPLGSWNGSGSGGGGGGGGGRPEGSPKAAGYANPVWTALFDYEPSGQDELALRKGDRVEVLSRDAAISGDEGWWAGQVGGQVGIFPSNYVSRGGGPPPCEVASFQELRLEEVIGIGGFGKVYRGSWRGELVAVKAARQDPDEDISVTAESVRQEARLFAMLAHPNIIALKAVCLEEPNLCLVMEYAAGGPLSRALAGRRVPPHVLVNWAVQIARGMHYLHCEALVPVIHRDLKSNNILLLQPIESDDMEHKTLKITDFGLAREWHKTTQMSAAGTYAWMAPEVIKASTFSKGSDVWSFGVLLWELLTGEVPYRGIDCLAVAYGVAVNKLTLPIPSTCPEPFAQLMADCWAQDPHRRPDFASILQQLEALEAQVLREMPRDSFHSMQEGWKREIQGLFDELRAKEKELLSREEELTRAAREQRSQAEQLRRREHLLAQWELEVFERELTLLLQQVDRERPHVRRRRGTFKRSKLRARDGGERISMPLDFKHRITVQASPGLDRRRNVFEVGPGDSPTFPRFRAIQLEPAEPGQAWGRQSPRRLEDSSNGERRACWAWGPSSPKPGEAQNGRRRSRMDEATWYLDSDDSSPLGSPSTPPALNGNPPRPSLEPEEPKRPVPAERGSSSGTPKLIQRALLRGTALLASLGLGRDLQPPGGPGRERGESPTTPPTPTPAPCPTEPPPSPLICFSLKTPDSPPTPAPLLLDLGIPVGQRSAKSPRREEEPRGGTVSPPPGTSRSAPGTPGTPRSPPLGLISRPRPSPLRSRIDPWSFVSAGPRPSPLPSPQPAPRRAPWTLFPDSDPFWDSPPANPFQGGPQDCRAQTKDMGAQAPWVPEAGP

- IC50 (MOLM-13): 120 nM
Structure (SMILES): CCOC(=O)C[C@H]1C=C(c2ccc(Cl)cc2)c2ccccc2-n2c(C)nnc21
- IC50 (LAPC4): 80 nM

- inhibition [1]: 78%
Structure (SMILES): CCOC(=O)c1[nH]cc2c1-c1[nH]c3ccccc3c1C(=O)NC2

- IC50 [2]: 75 nM
Structure (SMILES): O=C1NCC/C(=N\Nc2ccc(Cl)cn2)c2c1[nH]c1ccc(F)cc21

Structure (SMILES): Nc1ncc(/C=C/CNC(=O)c2cc(Br)c(Br)[nH]2)[nH]1 [OROIDIN]
- inhibition at 50 µM [3]: 50%

Structure (SMILES): NC1=NC(=O)/C(=C2\CCNC(=O)c3[nH]c(Br)c(Br)c32)N1
- IC50 [2]: 56 nM
- IC50 [4]: 530 nM

- Ratio IC50 (Homo sapiens [5]): 111
Structure (SMILES): COc1ccc(-c2cc3c([nH]2)C(=O)NCC/C3=C2/NC(N)=NC2=O)cc1OC

Structure (SMILES): NC1=NC(=O)/C(=C2\CCNC(=O)c3[nH]c4ccc(Br)cc4c32)N1
- IC50 [2]: 213 nM
- IC50 [4]: 1000 nM

- IC50 [2]: 10400 nM
Structure (SMILES): O=C1NCC/C(=N\Nc2ccccn2)c2c1[nH]c(Br)c2Br

Structure (SMILES): NC1=NC(=O)/C(=C2\CCNC(=O)c3[nH]c(Cl)c(Cl)c32)N1
- IC50 [2]: 62 nM
- IC50 [4]: 220 nM

Structure (SMILES): NC1=NC(=O)/C(=C2\CCNC(=O)c3[nH]cc(Br)c32)N1
- IC50 [2]: 79 nM
- IC50 [4]: 1500 nM

- Selectivity Index [6]: 1.4
- IC50 [2]: 6000 nM
Structure (SMILES): O=C1Cc2c([nH]c3ccc(Br)cc23)-c2cccnc2N1

- inhibition (Homo sapiens [7]): 50%
- inhibition [8]: 50%
- inhibition [9]: 50%
- inhibition [10]: 50%
- inhibition [11]: 50%
- inhibition [12]: 50%
Structure (SMILES): CCOC(=O)c1cc2c([nH]1)-c1[nH]c3ccccc3c1C(=O)NC2

- Ratio IC50 (Homo sapiens [5]): 66
Structure (SMILES): NC1=NC(=O)/C(=C2\CCNC(=O)c3[nH]c(-c4ccccc4)cc32)N1

Structure (SMILES): Nc1ncc(C2=CCNC(=O)c3[nH]c(Br)c(Br)c32)[nH]1 [STEVENSINE]
- EC50 (L5178Y): 3.5 µg/mL (≈ 9.04 µM)

- IC50 [4]: 2100 nM
- IC50 (Casein kinase I): > 10000 nM
Structure (SMILES): O=C1Cc2c([nH]c3ccncc23)-c2ccccc2N1

- Ratio IC50 (Homo sapiens [5]): 38
Structure (SMILES): CNC1=NC(=O)/C(=C2\CCNC(=O)c3[nH]c(-c4ccccc4)cc32)N1

Structure (SMILES): O=c1[nH]c2ccccc2c2c1[nH]c1ccccc12
- IC50 (KB 3-1): 6500 nM

- IC50 (MOLM-13): 170 nM
Structure (SMILES): Cc1nnc2n1-c1ccccc1C(c1ccc(Cl)cc1)=C[C@@H]2CC(=O)Nc1ccc2c(c1)NC(=O)C2
- IC50 (LAPC4): 80 nM

Structure (SMILES): NC1=NC(=O)/C(=C2\CCNC(=O)c3[nH]c(Br)cc32)N1 [HYMENIALDISINE]
- EC50 (L5178Y): 3.5 µg/mL (≈ 10.8 µM)
- IC50 [13]: 10000 nM
- IC50 (Casein kinase 2): 7000 nM
- inhibition [14]: 90%
- IC50 (THP-1 [15]): 2400 nM
- IC50 [16]: 470 nM
- IC50 (CDK1/Cyclin E): 40 nM
- IC50 (DNA topoisomerase 1): 10000 nM
- Activity (Mus musculus): 120%
- IC50 [17]: 7000 nM
- IC50 [18]: 1200 nM
- IC50 [2]: 25 nM
- IC50 [19]: 8000 nM
- IC50 (CDK3/Cyclin E): 100 nM
- IC50 (THP-1 [20]): 1400 nM
- IC50 (Bos taurus [21]): 600 nM
- IC50 [22]: 600 nM
- IC50 [23]: 4000 nM
- IC50 [24]: 1700 nM
- IC50 (Casein kinase I): 35 nM
- IC50 [25]: 600 nM
- IC50 (KB 3-1): 3100 nM
- IC50 (CDK6/cyclin D2): 700 nM
- inhibition at 3.1 µM [26]: 30%
- IC50 (Bos taurus [27]): 800 nM

- IC50 (MOLM-13): 120 nM
Structure (SMILES): Cc1nnc(C[C@H]2C=C(c3ccc(Cl)cc3)c3ccccc3-n3c(C)nnc32)o1
- IC50 (LAPC4): 40 nM

Structure (SMILES): NC1=NC(=O)/C(=C2\CCNC(=O)c3[nH]c4ccc(F)cc4c32)N1
- IC50 [2]: 177 nM
- IC50 [4]: 550 nM

- IC50 [28]: 40 nM
Structure (SMILES): NCCCCOc1ccc2c(c1)-c1[nH]c3ccc(Br)cc3c1CC(=O)N2

Structure (SMILES): O=C1NCCCc2ccccc2-c2c1[nH]c1ccccc21
- IC50 (KB 3-1): 8000 nM

- IC50 (CDK9/Cyclin T): 7400 nM
- IC50 [29]: > 10000 nM
- IC50 [2]: > 10000 nM
- IC50 [4]: > 10000 nM
- IC50 [30]: > 10000 nM
- IC50 (Casein kinase I): > 10000 nM
Structure (SMILES): O=C1Cc2c([nH]c3cc[n+]([O-])cc23)-c2ccccc2N1

Structure (SMILES): NC1=NC(=O)/C(=C2\CCNC(=O)c3[nH]c4ccccc4c32)N1
- IC50 (THP-1 [15]): 3500 nM
- IC50 [2]: 177 nM
- Ratio IC50 (Homo sapiens [5]): 29
- IC50 (THP-1 [20]): 8200 nM
- IC50 [4]: 800 nM
